Measured values: patent US10604523B2, “1-aryl-4-methyl-[1,2,4]triazolo[4,3-a]quinoxaline derivatives” (Janssen Pharmaceutica NV, priority 2011, dated 2020)

What was measured:
[1] = tested on: Apomorphine-induced agitation; assay: Reversal of Apomorphine-induced Agitation in Rats (APO); format: in vivo, rat; settings: for PO Max effect (cumulative agitation score over 60 min) / SC Max effect (cumulative agitation score over 60 min): apomorphine 1.0 mg/kg i.v.; for PO LAD (lowest active dose) / SC LAD (lowest active dose): lowest dose at which ≥67% tested animals respond; for SC Dose at max effect / SC Max effect (cumulative agitation score over 60 min) / SC LAD (lowest active dose): subcutaneous route
Description: Apomorphine (1.0 mg/kg, i.v.)-induced agitation was scored every 5 min over the first hour after injection of apomorphine. The score system was: (3) pronounced, (2) moderate, (1) slight, and (0) absent. […] For the present purpose, the cumulative agitation score over the whole 60-min observation period was used as a measure to describe the maximum effect (Max effect).

[2] = biological target: T1, Human recombinant PDE2A (hPDE2A) (Homo sapiens, UniProt O00408); assay: In vitro assay PDE2A (SPA, 3H-cGMP); format: biochemical; settings: read-out: pIC50 PDE2 (converted)
T1 construct: made in house; host or cells: Sf9 insect cells (baculovirus)

[3] = biological target: T2, Rat recombinant PDE10A (rPDE10A2) (Rattus norvegicus, UniProt Q9QYJ6); assay: In vitro assay PDE10A (SPA, 3H-cAMP); format: biochemical; settings: read-out: PIC50 PDE10 (converted)
T2 construct: made in house; host or cells: Sf9 insect cells (baculovirus)
T2 sequence (Q9QYJ6 1-794): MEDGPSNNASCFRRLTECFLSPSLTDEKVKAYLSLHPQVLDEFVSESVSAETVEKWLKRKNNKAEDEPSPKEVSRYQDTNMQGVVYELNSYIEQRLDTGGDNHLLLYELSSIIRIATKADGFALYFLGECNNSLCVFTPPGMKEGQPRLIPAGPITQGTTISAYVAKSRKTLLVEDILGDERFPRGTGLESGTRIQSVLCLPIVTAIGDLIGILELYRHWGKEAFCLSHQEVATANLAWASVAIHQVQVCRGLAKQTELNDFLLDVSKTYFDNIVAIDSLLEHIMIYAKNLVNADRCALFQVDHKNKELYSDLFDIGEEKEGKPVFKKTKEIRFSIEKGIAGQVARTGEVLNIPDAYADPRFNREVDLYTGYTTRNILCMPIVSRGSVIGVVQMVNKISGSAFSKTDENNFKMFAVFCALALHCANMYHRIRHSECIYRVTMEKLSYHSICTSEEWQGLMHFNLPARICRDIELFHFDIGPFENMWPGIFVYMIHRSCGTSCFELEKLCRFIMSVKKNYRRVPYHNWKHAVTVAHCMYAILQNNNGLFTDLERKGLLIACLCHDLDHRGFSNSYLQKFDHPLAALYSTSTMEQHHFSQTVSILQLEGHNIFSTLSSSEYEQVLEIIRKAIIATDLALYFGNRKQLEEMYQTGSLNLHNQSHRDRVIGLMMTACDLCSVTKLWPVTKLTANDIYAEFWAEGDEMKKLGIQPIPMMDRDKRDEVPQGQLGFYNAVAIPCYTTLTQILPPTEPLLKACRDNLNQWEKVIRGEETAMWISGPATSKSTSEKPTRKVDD

T1 sequence (O00408 whole entry): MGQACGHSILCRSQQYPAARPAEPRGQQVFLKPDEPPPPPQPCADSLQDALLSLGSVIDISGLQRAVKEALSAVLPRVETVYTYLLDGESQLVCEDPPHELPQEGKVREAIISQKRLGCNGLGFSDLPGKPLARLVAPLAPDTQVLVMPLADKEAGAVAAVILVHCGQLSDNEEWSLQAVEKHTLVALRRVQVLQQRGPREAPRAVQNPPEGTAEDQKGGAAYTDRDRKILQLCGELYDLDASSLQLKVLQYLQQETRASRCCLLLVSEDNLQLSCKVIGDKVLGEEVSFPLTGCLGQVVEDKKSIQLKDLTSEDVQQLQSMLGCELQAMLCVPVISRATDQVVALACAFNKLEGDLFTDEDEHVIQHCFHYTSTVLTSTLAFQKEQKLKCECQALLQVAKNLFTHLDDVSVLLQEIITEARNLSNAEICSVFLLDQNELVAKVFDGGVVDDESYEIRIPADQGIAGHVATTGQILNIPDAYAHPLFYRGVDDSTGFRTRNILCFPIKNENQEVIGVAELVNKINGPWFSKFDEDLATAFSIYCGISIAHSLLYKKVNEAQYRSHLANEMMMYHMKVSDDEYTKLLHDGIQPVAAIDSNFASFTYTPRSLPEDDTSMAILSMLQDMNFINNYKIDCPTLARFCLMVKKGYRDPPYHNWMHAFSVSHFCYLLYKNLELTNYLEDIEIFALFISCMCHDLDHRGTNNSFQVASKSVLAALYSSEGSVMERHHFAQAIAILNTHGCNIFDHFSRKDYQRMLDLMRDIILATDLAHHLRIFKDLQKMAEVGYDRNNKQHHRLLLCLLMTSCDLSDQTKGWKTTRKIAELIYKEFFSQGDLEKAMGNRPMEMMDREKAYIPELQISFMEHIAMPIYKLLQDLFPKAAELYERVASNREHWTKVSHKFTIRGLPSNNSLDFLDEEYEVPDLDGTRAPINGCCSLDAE

| Structure (SMILES) | PO Dose at Max Effect [1] [mg/kg] | PO Max effect (cumulative agitation score over 60 min) [1] | PO LAD (lowest active dose) [1] [mg/kg] | IC50 [2] [nM] | IC50 [3] [nM] | SC Dose at max effect [1] [mg/kg] | SC Max effect (cumulative agitation score over 60 min) [1] | SC LAD (lowest active dose) [1] [mg/kg] |
| --- | --- | --- | --- | --- | --- | --- | --- | --- |
| Cc1nc2ccc(O)cc2n2c(-c3ccccc3Cl)nnc12 [Compound B-13, 1-(2-Chlorophenyl)-4-methyl[1,2,4]triazolo[4,3-a]quinoxalin-8-ol] | 10 | 19 | 10 | 2 | 45.7 |  |  |  |
| Cc1nc2cc(Br)ccc2n2c(-c3ccccc3Cl)nnc12 [Compound B-3b, 7-Bromo-1-(2-chlorophenyl)-4-methyl[1,2,4]triazolo[4,3-a]quinoxaline] | 10 | 22 | > 10 | 60.3 | 191 |  |  |  |
| COc1ccc2nc(C)c3nnc(-c4ccccc4Cl)n3c2c1 [Compound B-5, 1-(2-Chlorophenyl)-8-methoxy-4-methyl[1,2,4]triazolo[4,3-a]quinoxaline] | 10 | 21 | > 10 | 7.59 | 25.1 |  |  |  |
| C=Cc1ccc2nc(C)c3nnc(-c4ccccc4Cl)n3c2c1 [Compound B-14, 1-(2-Chlorophenyl)-8-ethenyl-4-methyl[1,2,4]triazolo[4,3-a]quinoxaline] | 10 | 21 | > 10 | 7.08 | 37.2 |  |  |  |
| Cc1nc2ccc(CN3CCOC(CF)C3)cc2n2c(-c3ccccc3Cl)nnc12 (stereo not shown) [Compound B-59] |  |  |  | 4.9 | 23.4 | 10 | 15 | 10 |
| Cc1nc2ccc(C(=O)NCCN3CCCC3)cc2n2c(-c3ccccc3Cl)nnc12 [Compound B-48] |  |  |  | 2.09 | 61.7 | 10 | 24 | > 10 |
| Cc1nc2ccc(C(=O)NCc3ccncc3)cc2n2c(-c3ccccc3)nnc12 [Compound B-83] |  |  |  | 9.77 | 102 | 2.5 | 29 | > 10 |
| Cc1nc2ccc(C(=O)NCCN3CCCCC3)cc2n2c(-c3ccccc3Cl)nnc12 [Compound B-45] |  |  |  | 1.95 | 74.1 | 10 | 21 | > 10 |
| CCOc1ccc(Cl)c(-c2nnc3c(C)nc4ccc(CN5CCN(C)CC5)cc4n23)c1 [Compound B-145] |  |  |  | 40.7 | 240 | 10 | 22 | > 10 |
| CCOc1ccc(Cl)c(-c2nnc3c(C)nc4ccc(CN5CCC(O)CC5)cc4n23)c1 [Compound B-128] |  |  |  | 28.8 | 229 | 10 | 21 | > 10 |
| CCOCc1ccc2nc(C)c3nnc(-c4ccccc4)n3c2c1 [Compound B-12, 8-(Ethoxymethyl)-4-methyl-1-phenyl[1,2,4]triazolo[4,3-a]quinoxaline] |  |  |  | 21.4 | 269 | 10 | 19 | 10 |
| Cc1nc2ccc(C(=O)NCCF)cc2n2c(-c3ccccc3Cl)nnc12 [Compound B-40] | 10 | 22 | > 10 | 1.02 | 18.6 |  |  |  |
| Cc1ccc(Cl)c(-c2nnc3c(C)nc4ccc(C(=O)NCc5ccccn5)cc4n23)c1 [Compound B-44] | 10 | 21 | > 10 | 1.78 | 35.5 |  |  |  |
| Cc1nc2cc(OCCc3ccccn3)ccc2n2c(-c3ccccc3Cl)nnc12 [Compound B-139] | 10 | 22 | > 10 | 34.7 | 63.1 |  |  |  |
